Experimental data as given in US20250092065A1, “2-(INDAZOL-5-YL)-6-(PIPERIDIN-4-YL)-1,7-NAPHTHYRIDINE DERIVATIVES AND RELATED COMPOUNDS AS MODULATORS FOR SPLICING NUCLEIC ACIDS AND FOR THE TREATMENT OF PROLIFERATIVE DISEASES” (REMIX THERAPEUTICS INC., priority 2022, published 2025).
Where two headings read alike, the source gives them in different places.

Legend:
HTT mRNA = test: RT-qPCR splicing assay, HTT mRNA canonical (CJ) and alternative (AJ) junction; type: cell-based, human; conditions: Homo sapiens; for AC50: HTT alternative junction mRNA, read-out: HTT AJ (increase in AJ mRNA, AC50)
Outline: (§1)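 Canonical and alternative-exon junction isoforms were quantified by RT-qPCR in cell lysates, with ΔCt against a housekeeper (GAPDH/GUSB/PPIA), then ΔΔCt vs DMSO, converted to 2^(−ΔΔCt) and percent response. K562 or A673 cells were exposed for 24 h to 11 concentrations (3-fold, top final 10 uM).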

SMN2 mRNA = test: RT-qPCR splicing assay, SMN2 mRNA; type: cell-based, human; conditions: Homo sapiens, canonical junction qPCR panel, Table 4; read-out: SMN2 IC50 (decrease in CJ mRNA levels)
Outline: as §1

HTT = test: HiBiT protein abundance assay, HTT (K562 HiBiT knock-in); type: cell-based, human; conditions: HiBiT knock-in K562 cells, 24 hours, top dose 10 μM
Outline: (§2)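 Tagged-protein levels were measured as HiBiT/LgBiT luminescence in lysed K562 knock-in cells exposed to serially diluted compound (up to 10 μM final) for 24 hours. A four-parameter logistic regression of control-normalized signal yielded the IC50.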

MYB = test: HiBiT protein abundance assay, MYB (K562 HiBiT knock-in); type: cell-based, human; conditions: HiBiT knock-in K562 cells, 24 hours, top dose 10 μM
Outline: as §2

Target C = test: HiBiT protein abundance assay, Target C (K562 HiBiT knock-in); type: cell-based, human; conditions: HiBiT knock-in K562 cells, 24 hours, top dose 10 μM
Outline: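 K562 HiBiT knock-in cells (10000/well) were treated 24 h at 37° C with a 10-point 3-fold dilution series (top 10 μM final, ≤0.25% DMSO). HiBiT luminescence was read after lytic LgBiT detection. Percent response used unmodified K562 and DMSO-treated knock-in controls, and IC50 came from a four-parameter fit at 50% of untreated.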

K562 cells = test: Cell Titer Glo 2.0 cell viability (toxicity) assay, K562; conditions: 500 cells/well, 72 hours
MYB mRNA = test: RT-qPCR splicing assay, MYB mRNA canonical (CJ) and alternative (AJ) junction; type: cell-based, human; conditions: Homo sapiens; for AC50: MYB alternative junction mRNA, read-out: MYB AJ (increase in AJ mRNA, AC50)
Outline: as §1

[1] = HTT canonical junction mRNA, RT-qPCR, read-out: HTT CJ (decrease in CJ mRNA levels, IC50)
[2] = canonical junction qPCR panel, Table 4, read-out: HTT IC50 (decrease in CJ mRNA levels)
[3] = MYB canonical junction mRNA, RT-qPCR, read-out: MYB CJ (decrease in CJ mRNA levels, IC50)
[4] = canonical junction qPCR panel, Table 4, read-out: MYB IC50 (decrease in CJ mRNA levels)

Structure (SMILES) | AC50 (HTT mRNA; RT-qPCR) [µM] | IC50 (HTT mRNA; [1]) [µM] | IC50 (HTT mRNA; [2]) [µM] | IC50 (SMN2 mRNA) [µM] | IC50 (HTT) [µM] | IC50 (MYB) [µM] | IC50 (Target C) [µM] | Effect of Exemplary Compounds on Cell Viability, K562 (K562 cells) | AC50 (MYB mRNA; RT-qPCR) [µM] | IC50 (MYB mRNA; [3]) [µM] | IC50 (MYB mRNA; [4]) [µM]
COc1cc2c(=O)n(C)cnc2cc1-c1ccc2nc(N3CCC(NC(C)(C)C)C3)ccc2n1 (centres unmarked) [Compound 168] | > 10 | > 10 | > 10 | > 10 | > 10 | > 10 | > 10 | D (D represents greater than 10 μM in K562 cells) | > 10 | > 10 | > 10
CN1CCC2(CC1)CCN2c1ccc2nc(-c3cc4cn(C)nc4cc3O)ccc2n1 [Compound 169] | > 10 | > 10 | > 10 | 1 to 10 | 1 to 10 | 1 to 10 | > 10 | B (B represents 100-1000 nM) | > 10 | > 10 | > 10
CN[C@H]1CCN(c2ccc3nc(-c4cc5cn(C)nc5cc4O)ccc3n2)C1 [Compound 170] | 0.1 to 1 | < 0.1 | < 0.1 | < 0.1 | < 0.1 | 0.1 to 1 | 0.1 to 1 | B (B represents 100-1000 nM) | 0.1 to 1 | 0.1 to 1 | 0.1 to 1
CN[C@@H]1CCN(c2ccc3nc(-c4cc5cn(C)nc5cc4O)ccc3n2)C1 [Compound 172] | 0.1 to 1 | < 0.1 | < 0.1 | < 0.1 | < 0.1 | < 0.1 | 0.1 to 1 | B (B represents 100-1000 nM) | < 0.1 | < 0.1 | < 0.1
CC(C)N[C@@H]1CCN(c2ccc3nc(-c4cc5cn(C)nc5cc4O)ccc3n2)C1 [Compound 173] | < 0.1 | < 0.1 | < 0.1 | < 0.1 | < 0.1 | < 0.1 | < 0.1 | A (A represents <100 nM) | < 0.1 | < 0.1 | < 0.1
Cc1cc(=O)c2cc(O)c(-c3ccc4nc(N5CCC(NC(C)(C)C)C5)ccc4n3)cc2o1 (centres unmarked) [Compound 174] | > 10 | > 10 | > 10 | > 10 | > 10 | > 10 | > 10 | A (A represents <100 nM) | > 10 | > 10 | > 10
Cc1nc2cc(O)c(-c3ccc4nc(N5CCC(NC(C)(C)C)C5)ccc4n3)cc2o1 (centres unmarked) [Compound 175] | < 0.1 | < 0.1 | < 0.1 | < 0.1 | < 0.1 | < 0.1 | < 0.1 | B (B represents 100-1000 nM) | < 0.1 | < 0.1 | < 0.1
COc1cc2nc(C)sc2cc1-c1ccc2nc(N3CCC(NC(C)(C)C)C3)ccc2n1 (centres unmarked) [Compound 176] | 1 to 10 | 1 to 10 | 1 to 10 | 1 to 10 | 1 to 10 | 1 to 10 | 1 to 10 | C (C represents 1000-9999 nM) | 1 to 10 | 1 to 10 | 1 to 10
COc1cc2nc(C)oc2cc1-c1ccc2nc(N3CCC(NC(C)(C)C)C3)ccc2n1 (centres unmarked) [Compound 177] | 1 to 10 | 1 to 10 | 1 to 10 | 1 to 10 | 1 to 10 | 1 to 10 | 1 to 10 | C (C represents 1000-9999 nM) | 1 to 10 | 1 to 10 | 1 to 10
Cn1cc2cc(-c3ccc4nc(N5CCC6(CCN6)C5)ccc4n3)c(O)cc2n1 (centres unmarked) [Compound 178] | 0.1 to 1 | 0.1 to 1 | 0.1 to 1 | < 0.1 | 0.1 to 1 | 0.1 to 1 | 0.1 to 1 | B (B represents 100-1000 nM) | 0.1 to 1 | 0.1 to 1 | 0.1 to 1
CCN[C@H]1CCN(c2ccc3nc(-c4cc5cn(C)nc5cc4O)ccc3n2)C1 [Compound 179] | < 0.1 | < 0.1 | < 0.1 | < 0.1 | < 0.1 | 0.1 to 1 | 0.1 to 1 | B (B represents 100-1000 nM) | < 0.1 | 0.1 to 1 | 0.1 to 1
CCN[C@@H]1CCN(c2ccc3nc(-c4cc5cn(C)nc5cc4O)ccc3n2)C1 [Compound 180] | 0.1 to 1 | < 0.1 | < 0.1 | < 0.1 | < 0.1 | < 0.1 | 0.1 to 1 | A (A represents <100 nM) | < 0.1 | < 0.1 | < 0.1
Cn1cc2cc(-c3ccc4nc(N5CC[C@H](NCC(F)(F)F)C5)ccc4n3)c(O)cc2n1 [Compound 182] | > 10 | 1 to 10 | 1 to 10 | 1 to 10 | > 10 | > 10 | > 10 | D (D represents greater than 10 μM in K562 cells) | > 10 | 1 to 10 | 1 to 10
Cn1cc2cc(-c3ccc4nc(C5CCNCC5)ccc4n3)ccc2n1 [Compound 184] | 0.1 to 1 | 0.1 to 1 | 0.1 to 1 | < 0.1 | 0.1 to 1 | 0.1 to 1 | 0.1 to 1 | B (B represents 100-1000 nM) | 0.1 to 1 | 0.1 to 1 | 0.1 to 1
Cn1cc2cc(-c3ccc4nc(C5CCNCC5)ccc4n3)cc(F)c2n1 [Compound 185] | 1 to 10 | 1 to 10 | 1 to 10 | 0.1 to 1 | 1 to 10 | 1 to 10 | > 10 | C (C represents 1000-9999 nM) | 1 to 10 | 1 to 10 | 1 to 10
Cc1cn2nc(-c3ccc4nc(N5CCC(NC(C)(C)C)C5)ccc4n3)cc2c(C)n1 (centres unmarked) [Compound 187] | < 0.1 | < 0.1 | < 0.1 | < 0.1 | < 0.1 | 0.1 to 1 | < 0.1 | B (B represents 100-1000 nM) | < 0.1 | 0.1 to 1 | 0.1 to 1
Cn1cc2cc(-c3ccc4nc(N5CC[C@@H](NC6COC6)C5)ccc4n3)c(O)cc2n1 [Compound 188] | 0.1 to 1 | 0.1 to 1 | 0.1 to 1 | < 0.1 | 0.1 to 1 | 1 to 10 | 1 to 10 | C (C represents 1000-9999 nM) | 0.1 to 1 | 0.1 to 1 | 0.1 to 1
Cn1cc2cc(-c3ccc4nc(N5CC[C@H](NC6COC6)C5)ccc4n3)c(O)cc2n1 [Compound 189] | 0.1 to 1 | 1 to 10 | 1 to 10 | < 0.1 | 1 to 10 | 1 to 10 | 1 to 10 | D (D represents greater than 10 μM in K562 cells) | 0.1 to 1 | 0.1 to 1 | 0.1 to 1
Cc1nc2cc(O)c(-c3ccc4nc(N5CCC(NC(C)(C)C)C5)ccc4n3)cc2s1 (centres unmarked) [Compound 190] | > 10 | > 10 | > 10 | < 0.1 | > 10 | > 10 | > 10 | C (C represents 1000-9999 nM) | > 10 | > 10 | > 10
